The values that follow come from patent US20260069571A1, “DDR1 AND DDR2 INHIBITORS FOR THE TREATEMENT OF CANCER AND FIBROTIC DISEASES” (REDX PHARMA PLC, priority 2021, published 2026).

One assay has as its target Recombinant human DDR1 (Homo sapiens (Human), UniProt Q08345). Kind of assay: LanthaScreen Eu Kinase Binding Assay, DDR1. Particulars: DDR1 2.5 nM (aa440-876, GST tag), Kinase Tracer 178 5 nM; for IC50: read-out: DDR1 pIC50 (converted). In a few lines: (§1)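 GST-tagged kinase domains (DDR1 aa440-876 at 2.5 nM; DDR2 aa427-855 at 1.75 nM) were preincubated 30 min at room temperature with compound in HEPES pH 7.3 buffer. Then 1 nM Eu-anti-GST plus Tracer 178 (5 nM DDR1, 10 nM DDR2) were added; after 60 min, TR-FRET gave IC50 by four-parameter fit, ≥2 replicates.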
Background: TR-FRET usually uses a lanthanide donor and a delayed reading to cut background.

Another assay has as its target Recombinant human DDR2 (Homo sapiens (Human), UniProt Q16832). Kind of assay: LanthaScreen Eu Kinase Binding Assay, DDR2. Particulars: DDR2 1.75 nM (aa427-855, GST tag), Kinase Tracer 178 10 nM; for IC50: read-out: DDR2 pIC50 (converted). In a few lines: as §1

Recombinant human DDR2, sequence (Q16832 427-855): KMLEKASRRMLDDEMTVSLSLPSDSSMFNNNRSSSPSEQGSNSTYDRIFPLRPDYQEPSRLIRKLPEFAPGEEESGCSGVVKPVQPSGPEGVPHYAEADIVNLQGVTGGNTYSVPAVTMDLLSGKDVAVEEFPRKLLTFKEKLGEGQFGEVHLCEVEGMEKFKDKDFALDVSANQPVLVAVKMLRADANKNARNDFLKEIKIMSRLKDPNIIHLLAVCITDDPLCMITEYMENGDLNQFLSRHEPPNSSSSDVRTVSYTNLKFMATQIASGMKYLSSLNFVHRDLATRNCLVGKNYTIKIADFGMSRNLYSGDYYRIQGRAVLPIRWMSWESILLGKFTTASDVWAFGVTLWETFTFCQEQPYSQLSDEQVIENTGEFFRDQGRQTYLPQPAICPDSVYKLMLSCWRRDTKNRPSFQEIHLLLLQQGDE
Recombinant human DDR1, sequence (Q08345 other isoform, or with tags, fused parts or gaps): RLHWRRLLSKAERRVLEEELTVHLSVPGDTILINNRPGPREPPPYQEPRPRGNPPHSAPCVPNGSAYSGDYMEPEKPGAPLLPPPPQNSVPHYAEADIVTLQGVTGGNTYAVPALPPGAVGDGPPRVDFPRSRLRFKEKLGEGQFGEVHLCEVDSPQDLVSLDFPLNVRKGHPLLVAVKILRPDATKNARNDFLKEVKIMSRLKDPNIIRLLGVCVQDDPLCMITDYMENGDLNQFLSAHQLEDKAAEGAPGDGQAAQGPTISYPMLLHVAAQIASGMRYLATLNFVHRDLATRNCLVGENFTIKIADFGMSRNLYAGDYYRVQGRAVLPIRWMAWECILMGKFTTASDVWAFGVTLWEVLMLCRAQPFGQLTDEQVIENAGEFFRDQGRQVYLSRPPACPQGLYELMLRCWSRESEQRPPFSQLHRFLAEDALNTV

Consider `N#Cc1n[nH]c2ccc(Nc3cccc4c3C(=O)N(CC(=O)N3CCC[C@H]3C(F)(F)F)C4)cc12` [Example 82, 5-[[3-oxo-2-[2-oxo-2-[(2S)-(trifluoromethyl)pyrrolidin-1-yl]ethyl]isoindolin-4-yl]amino]-1H-indazole-3-carbonitrile], for which the IC50 at Recombinant human DDR1 is 0.01 to 0.1 µM; at Recombinant human DDR2, no less than 1 µM.

With `O=C1c2c(cccc2Nc2ccc3[nH]nc(F)c3c2)CN1CC(=O)N1CCC[C@H]1C(F)(F)F` [Example 83, 7-[(3-fluoro-1H-indazol-5-yl)amino]-2-[2-oxo-2-[(2S)-(trifluoromethyl)pyrrolidin-1-yl]ethyl]isoindolin-1-one], the IC50 at Recombinant human DDR1 and on Recombinant human DDR2 was 0.01 to 0.1 µM throughout.

With `O=C1c2c(cccc2Nc2ccc3[nH]ncc3n2)CN1CC(=O)N1CCC[C@H]1C(F)(F)F` [Example 84, 2-[2-oxo-2-[(2S)-(trifluoromethyl)pyrrolidin-1-yl]ethyl]-7-(1H-pyrazolo[4,3-b]pyridin-5-ylamino)isoindolin-1-one], the IC50 at Recombinant human DDR1 was 0.01 to 0.1 µM; at Recombinant human DDR2, 0.1 to 1 µM.

For the molecule `Cn1ncc2nc(Nc3cccc4c3C(=O)N(CC(=O)N3CCC[C@H]3C(F)(F)F)C4)ccc21` [Example 85, 7-[(1-methylpyrazolo[4,3-b]pyridin-5-yl)amino]-2-[2-oxo-2-[(2S)-(trifluoromethyl)pyrrolidin-1-yl]ethyl]isoindolin-1-one], the IC50 at Recombinant human DDR1 and on Recombinant human DDR2 was 0.01 to 0.1 µM each time.

As for `CN(c1ccc2[nH]nc(C#N)c2c1)c1cccc2c1C(=O)N(CC(=O)N1CCC[C@H]1C(F)(F)F)C2` [Example 86, 5-[methyl-[3-oxo-2-[2-oxo-2-[(2S)-(trifluoromethyl)pyrrolidin-1-yl]ethyl]isoindolin-4-yl]amino]-1H-indazole-3-carbonitrile], the IC50 on Recombinant human DDR1 and at Recombinant human DDR2 was 0.01 to 0.1 µM throughout.

For the molecule `CN(c1cnc2[nH]ncc2c1)c1cccc2c1C(=O)N(CC(=O)N1CCC[C@H]1C(F)(F)F)C2` [Example 88, 7-[methyl(1H-pyrazolo[3,4-b]pyridin-5-yl)amino]-2-[2-oxo-2-[(2S)-(trifluoromethyl)pyrrolidin-1-yl]ethyl]isoindolin-1-one], the IC50 on Recombinant human DDR1 and at Recombinant human DDR2 was 0.01 to 0.1 µM in each case.

Regarding `C[C@H](NC(=O)CN1Cc2cccc(N(C)c3cnc4[nH]ncc4c3)c2C1=O)C(F)(F)F` [Example 89, 2-[7-[methyl(1H-pyrazolo[3,4-b]pyridin-5-yl)amino]-1-oxo-isoindolin-2-yl]-N-[(1S)-2,2,2-trifluoro-1-methyl-ethyl]acetamide], the IC50 at Recombinant human DDR1 and on Recombinant human DDR2 was 0.01 to 0.1 µM each time.

For `CN(c1cnc2[nH]ncc2c1)c1cccc2c1C(=O)N(CC(=O)NCC(F)(F)F)C2` [Example 90, 2-[7-[methyl(1H-pyrazolo[3,4-b]pyridin-5-yl)amino]-1-oxo-isoindolin-2-yl]-N-(2,2,2-trifluoroethyl)acetamide], the IC50 is 0.01 to 0.1 µM on Recombinant human DDR1 and 0.1 to 1 µM on Recombinant human DDR2.

Consider `CN(c1ccc2[nH]nc(F)c2c1)c1cccc2c1C(=O)N(CC(=O)N1CCC[C@H]1C(F)(F)F)C2` [Example 92, 7-[(3-fluoro-1H-indazol-5-yl)-methyl-amino]-2-[2-oxo-2-[(2S)-(trifluoromethyl)pyrrolidin-1-yl]ethyl]isoindolin-1-one], for which the IC50 on Recombinant human DDR1 is 0.01 to 0.1 µM; on Recombinant human DDR2, 0.1 to 1 µM.

For `Cn1ncc2cc(Nc3cccc4c3C(=O)N(CC(=O)NCC(F)(F)F)C4)cc(F)c21` [Example 93, 2-[7-[(7-fluoro-1-methyl-indazol-5-yl)amino]-1-oxo-isoindolin-2-yl]-N-(2,2,2-trifluoroethyl)acetamide], on Recombinant human DDR1, the “DDR1 pIC50” value is given as “A (pIC50>8)”. Also, on Recombinant human DDR2, the IC50 is 0.01 to 0.1 µM.

As for `CN(c1ccc2c(cnn2C)c1)c1cccc2c1C(=O)N(CC(=O)N1CCC[C@H]1C(F)F)C2` [Example 95, 7-[methyl-(1-methylindazol-5-yl)amino]-2-[2-oxo-2-[(2S)-(difluoromethyl)pyrrolidin-1-yl]ethyl]isoindolin-1-one], the IC50 at Recombinant human DDR1 and at Recombinant human DDR2 was 0.01 to 0.1 µM each time.

`Cn1ncc2cc(Nc3cccc4c3C(=O)N(CC(=O)N3CCC[C@H]3C(F)(F)F)C4)cc(F)c21` [Example 96, 7-[(7-fluoro-1-methyl-indazol-5-yl)amino]-2-[2-oxo-2-[(2S)-(trifluoromethyl)pyrrolidin-1-yl]ethyl]isoindolin-1-one]: the “DDR1 pIC50” value at Recombinant human DDR1 is “A (pIC50>8)”. At Recombinant human DDR2, the “DDR2 pIC50” value is listed as “A (pIC50>8)”.

For the molecule `Cn1ncc2cc(Nc3nccc4c3C(=O)N(CC(=O)N3CCC[C@H]3C(F)(F)F)C4)ccc21` [Example 97, 4-[(1-methylindazol-5-yl)amino]-2-[2-oxo-2-[(2S)-(trifluoromethyl)pyrrolidin-1-yl]ethyl]-1H-pyrrolo[3,4-c]pyridin-3-one], the IC50 at Recombinant human DDR1 was 0.01 to 0.1 µM; on Recombinant human DDR2 it was 0.1 to 1 µM.

`Cn1ncc2cc(Nc3cccc4c3C(=O)N(CC(=O)Nc3cncc(C(F)(F)F)c3)C4)cnc21` [Example 99, 2-[7-[(1-methylpyrazolo[3,4-b]pyridin-5-yl)amino]-1-oxo-isoindolin-2-yl]-N-[5-(trifluoromethyl)-3-pyridyl]acetamide]: the IC50 on Recombinant human DDR1 and on Recombinant human DDR2 was 0.01 to 0.1 µM in each case.

`Cc1nn(C)c2ncc(Nc3cccc4c3C(=O)N(CC(=O)NCC(F)(F)F)C4)cc12` [Example 101, 2-[7-[(1,3-dimethylpyrazolo[3,4-b]pyridin-5-yl)amino]-1-oxo-isoindolin-2-yl]-N-(2,2,2-trifluoroethyl)acetamide]: the “DDR1 pIC50” value on Recombinant human DDR1 is “D (pIC50≤6)”. For the same molecule, the “DDR2 pIC50” value at Recombinant human DDR2 is “D (pIC50≤6)”.

In the case of `Cc1nn(C)c2ncc(Nc3cccc4c3C(=O)N(CC(=O)N3CCC[C@H]3C(F)(F)F)C4)cc12` [Example 102, 7-[(1,3-dimethylpyrazolo[3,4-b]pyridin-5-yl)amino]-2-[2-oxo-2-[(2S)-(trifluoromethyl)pyrrolidin-1-yl]ethyl]isoindolin-1-one], the figures for the IC50 at Recombinant human DDR1 and on Recombinant human DDR2 were 0.01 to 0.1 µM and 0.1 to 1 µM, respectively.
